This test is described as follows: Ratio of Kcat versus Km was determined.

The text below walks through data of ChEMBL document CHEMBL1132216, “Studies on the monoamine oxidase-B-catalyzed biotransformation of 4-azaaryl-1-methyl-1,2,3,6-tetrahydropyridine derivatives” (J Med Chem, 1999).

Each structure is given as a SMILES string.

Consider `CN1CC=C(c2cccn2C)CC1`, for which the Ratio turned out to be 1800. On to `CN1CC=C(c2ccc[nH]2)CC1`, for which the Ratio was determined as 46.
